Data set [1] has as its system mice treated with FSL-1 post TBI. Briefly: Late effects of radiation: long-term survivors, MRI of tissues. Format: in vivo. The following applies: survivors of more than 600 days. An excerpt: MRI was used to detect multiple tissues in these survivors, such as brain, gut, kidney or spleen. […] FSL-1 is found to accelerate hematopoietic cell recovery in bone marrow, spleen and periphery, and augments systemic levels of hematopoiesis stimulating factors (G-CSF).

Data set [2] deals with B16 melanoma tumor cells. Briefly: B16 melanoma tumor model with cisplatin chemotherapy. The procedure:
The impact of combining FSL-1 treatment with chemotherapy as a therapeutic against cancer was also tested. In this study, B16 melanoma tumor cells (50,000) in matrigel matrix were implanted into the flank (SC) of wild type animals and were allowed to grow 10 days to palpation (˜3-5 mm in diameter). Mice were then treated with chemotherapy agent cisplatin (intravenous IV, 100 μg/mouse) with and without FSL-1 (SC, 40 μg/mouse). Changes in tumor volume (ellipsoidal volume calculation of ½ width*width*length, mm^3) were monitored along with changes in body weight and condition.

The subject of data set [3] is irradiated male C57BL/6 mice. Briefly: Radiomitigation activity of TLR2 ligands after TBI. Format: in vivo. The following applies: IP injection 24 hr post TBI. The procedure:
The radiomitigation activity of TLR2 ligands was delineated (FIGS. 1C and 1D), including FSL-1, by irradiating male C57BL/6 mice and treating (IP injections) with either FSL-1, Pam2CSK4 (Pam2Cys-SKKKK, TLR2/6 ligand), or Pam3CSK4 (Pam3Cys-SKKKK, TLR1/2 ligand) at 24 hours (hr) post TBI.

Data set [4] has as its system C57BL/6 mice exposed to 9.2 Gy gamma radiation (total body irradiation). The data set can be described thus: Survival and clinical score after lethal total body irradiation, TLR ligands given IP. Format: in vivo. The following applies: 9.2 Gy TBI, IP injection one day after radiation, survival over 30 days. As for the experimental part:
To examine the role of TLR ligands as radio-mitigators, FSL-1 (TLR2/6 ligand) was first compared with other TLR ligands (FIGS. 1A and 1B). In this experiment, C57BL/6 mice were exposed to 9.2 Gy gamma radiation (total body irradiation, or TBI) using 137-Cesium irradiator and then the mice were treated with TLR ligands via intraperitoneal (IP) injections one day after radiation. The impact of CpG-ODN2395 (CpG, TLR9 agonist), Flagellin FliC (Fla, TLR5 agonist), MPLA (TLR4 agonist) or FSL-1 (Pam2[…], TLR2/6 agonist) in comparison to mice treated with physiological water (no treatment, NT) was examined. Survival was monitored over 30 days and clinical scores were recorded. […] Eight independent experiments have been completed, each showing the survival rate of FSL-1-treated mice ranged from 50% to 100% with the mean rate of 80%. The lowest one is presented herein.
The Clinical Score is based on changes to body condition that included body weight, body temperature, physical appearance, grooming, posture, activity/behavior, appetite and hydration. Supplementation with wet feed, subcutaneous fluids, long sipper tubes, were provided as needed.

The test system of data set [5] is irradiated mice. The following applies: only when injected subcutaneously daily from day 1 to 16 (16 doses); cited from earlier work.

“Also recorded” adds a separate entry of the source. Peptide text beside a SMILES is read from it. * marks the point of attachment. X1 = CCCCCCCCCCCCCCCC(=O)OCC(C*)OC(=O)CCCCCCCCCCCCCCC

Results on 6 molecules are retold here after patent US11918621B2, “Methods and treatments using toll-like receptor agonists to mitigate hematopoietic myeloid loss, increase gastrointestinal recovery and reduce tumor growth” (priority 2017, dated 2024).

In the case of `CCCCCCCCCCCCCCCC(=O)OCC(CSC[C@H](N)C(=O)NCC(=O)N[C@@H](CC(=O)O)C(=O)N1CCC[C@H]1C(=O)N[C@@H](CCCCN)C(=O)N[C@@H](Cc1c[nH]cn1)C(=O)N1CCC[C@H]1C(=O)N[C@@H](CCCCN)C(=O)N[C@@H](CO)C(=O)N[C@@H](Cc1ccccc1)C(=O)O)OC(=O)CCCCCCCCCCCCCCC` (stereo partly shown) [FSL-1] (H-C(X1)GDPKHPKSF-OH), in data set [1], the “MRI of tissues (brain, gut, kidney, spleen)” value was “no physiologic changes” and the “symptoms of disease in long-term survivors” value is “no symptoms of any diseases; also recorded: without any symptoms of leukemia or other diseases”. Further, the body weight entry in data set [2] (mouse, in vivo) is given as “maintained weight for nearly 2 weeks following treatment”. On to `N.N.[Cl][Pt][Cl]` [cisplatin], for which the “animals reaching the 2 cm tumor diameter endpoint” value in data set [2] (by day 19) is “two”. Also, in data set [2] (mouse, in vivo), the body condition entry is reported as “reduced body condition” and the body weight result is “dramatically lost weight after day 19”. In the case of Pam2Cys-SKKKK [Pam2CSK4], the survival result in data set [3] was “promoted survival”. As for Pam3Cys-SKKKK [Pam3CSK4], the survival result in data set [3] is given as “promoted survival”.

B1: Flagellin FliC: TLR5 agonist (protein, UniProt P06179 2-495, looked up)
Flagellin: AQVINTNSLSLLTQNNLNKSQSALGTAIERLSSGLRINSAKDDAAGQAIANRFTANIKGLTQASRNANDGISIAQTTEGALNEINNNLQRVRELAVQSANSTNSQSDLDSIQAEITQRLNEIDRVSGQTQFNGVKVLAQDNTLTIQVGANDGETIDIDLKQINSQTLGLDTLNVQQKYKVSDTAATVTGYADTTIALDNSTFKASATGLGGTDQKIDGDLKFDDTTGKYYAKVTVTGGTGKDGYYEVSVDKTNGEVTLAGGATSPLTGGLPATATEDVKNVQVANADLTEAKAALTAAGVTGTASVVKMSYTDNNGKTIDGGLAVKVGDDYYSATQNKDGSISINTTKYTADDGTSKTALNKLGGADGKTEVVSIGGKTYAASKAEGHNFKAQPDLAEAAATTTENPLQKIDAALAQVDTLRSDLGAVQNRFNSAITNLGNTVNNLTSARSRIEDSDYATEVSNMSRAQILQQAGTSVLAQANQVPQNVLSLLR
With B1, the “protection from radiation-induced death” value in data set [4] is “did not show any protection”.

B2: G-CSF: granulocyte colony-stimulating factor, approved radiation countermeasure (protein, UniProt P09919 31-207, looked up)
Granulocyte …: TPLGPASSLPQSFLLKCLEQVRKIQGDGAALQEKLVSECATYKLCHPEELVLLGHSLGIPWAPLSSCPSQALQLAGCLSQLHSGLFLYQGLLQALEGISPELGPTLDTLQLDVADFATTIWQQMEELGMAPALQPTQGAMPAFASAFQRRAGGVLVASHLQSFLEVSYRVLRHLAQP
B2: the “survival of irradiated mice” value in data set [5] is “increase the survival”.
